One block for each molecule: values may come before it. Active and inactive are the calls of the source. The rule behind the calls is not given here.
Columns and labels:
[1] = target: T1, Peroxiredoxin-5, mitochondrial (Homo sapiens) (UniProt P30044); test: Binding affinity to human PRDX5 expressed in Escherichia coli at ligand/protein ratio 120 measured over 0.5 to 4 secs by STD NMR spectrometric analysis
T1 sequence (whole entry): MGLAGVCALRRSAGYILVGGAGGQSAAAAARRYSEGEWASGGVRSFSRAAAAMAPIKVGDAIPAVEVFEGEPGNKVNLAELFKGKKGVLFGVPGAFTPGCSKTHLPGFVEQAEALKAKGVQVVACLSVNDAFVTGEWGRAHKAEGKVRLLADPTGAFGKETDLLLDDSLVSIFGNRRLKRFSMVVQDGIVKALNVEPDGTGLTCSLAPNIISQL

[2] = target: T1, Peroxiredoxin-5, mitochondrial (Homo sapiens); test: Binding affinity to human PRDX5 expressed in Escherichia coli at ligand/protein ratio 50 and 240 measured over 2 secs by STD NMR spectrometric analysis
[3] = target: T2, Glycogen phosphorylase, muscle form (Oryctolagus cuniculus) (UniProt P00489); test: Binding affinity to rabbit muscle glycogen phosphorylase by STD NMR spectrometric analysis
T2 sequence (whole entry): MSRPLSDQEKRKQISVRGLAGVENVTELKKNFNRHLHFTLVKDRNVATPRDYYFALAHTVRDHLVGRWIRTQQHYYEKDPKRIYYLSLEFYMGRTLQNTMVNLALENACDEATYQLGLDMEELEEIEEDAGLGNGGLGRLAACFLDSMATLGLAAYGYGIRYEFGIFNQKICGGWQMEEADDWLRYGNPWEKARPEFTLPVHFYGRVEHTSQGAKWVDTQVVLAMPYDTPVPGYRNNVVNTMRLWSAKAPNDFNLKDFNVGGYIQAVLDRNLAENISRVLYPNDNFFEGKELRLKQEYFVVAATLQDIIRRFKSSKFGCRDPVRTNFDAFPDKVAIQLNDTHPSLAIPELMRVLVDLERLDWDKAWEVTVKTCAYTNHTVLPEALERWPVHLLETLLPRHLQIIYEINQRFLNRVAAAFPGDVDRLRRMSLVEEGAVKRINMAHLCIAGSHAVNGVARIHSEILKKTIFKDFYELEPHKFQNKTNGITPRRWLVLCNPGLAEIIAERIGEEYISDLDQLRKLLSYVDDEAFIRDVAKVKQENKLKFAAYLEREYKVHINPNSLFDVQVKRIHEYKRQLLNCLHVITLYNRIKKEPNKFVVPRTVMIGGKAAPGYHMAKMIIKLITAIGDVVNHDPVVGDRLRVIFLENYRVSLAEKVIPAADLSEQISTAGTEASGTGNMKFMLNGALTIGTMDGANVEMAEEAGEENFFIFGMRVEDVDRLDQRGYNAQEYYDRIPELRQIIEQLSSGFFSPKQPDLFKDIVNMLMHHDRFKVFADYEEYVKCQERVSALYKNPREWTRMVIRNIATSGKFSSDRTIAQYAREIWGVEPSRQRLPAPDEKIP

[4] = target: Mitogen-activated protein kinase 3 (Homo sapiens) (UniProt P27361); test: Binding affinity to ERK1 (unknown origin) expressed in Escherichia coli by STD NMR spectrometric analysis
Sequence of Mitogen-activated protein kinase 3 (Homo sapiens) (P27361 whole entry): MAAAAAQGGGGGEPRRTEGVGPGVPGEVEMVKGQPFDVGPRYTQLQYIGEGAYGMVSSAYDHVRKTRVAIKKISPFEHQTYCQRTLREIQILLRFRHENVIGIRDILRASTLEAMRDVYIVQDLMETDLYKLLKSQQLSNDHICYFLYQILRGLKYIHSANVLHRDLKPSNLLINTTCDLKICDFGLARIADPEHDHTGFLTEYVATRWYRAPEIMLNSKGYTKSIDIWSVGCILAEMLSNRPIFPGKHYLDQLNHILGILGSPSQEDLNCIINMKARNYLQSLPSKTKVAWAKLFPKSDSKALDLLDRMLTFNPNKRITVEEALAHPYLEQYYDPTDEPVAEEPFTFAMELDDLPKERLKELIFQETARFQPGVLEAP

[5] = target: T1, Peroxiredoxin-5, mitochondrial (Homo sapiens); test: Binding affinity to human PRDX5 expressed in Escherichia coli by STD NMR spectrometric analysis
[6] = target: T2, Glycogen phosphorylase, muscle form (Oryctolagus cuniculus); test: Binding affinity to rabbit muscle glycogen phosphorylase measured for 0.5 to 4 secs by STD NMR spectrometric analysis

SMILES: Cc1ccc(O)c(O)c1
Activity [1]: Active | Activity [2]: Active

SMILES: Oc1ccccc1Cc1ccccc1O
Activity [5]: Active

SMILES: Oc1ccccc1-c1ccccc1
Activity [3]: Active

The next lines start with the values.

Activity [3]: Active | Activity [4]: Active
SMILES: c1cnc2[nH]ccc2c1

Activity [6]: Active
SMILES: c1ccc2[nH]ccc2c1

Activity [3]: Active
SMILES: Nc1nc2ncnc-2c[nH]1

Activity [3]: Active
SMILES: O=C(O)c1cnc2ccccc2c1
